“Also recorded” adds a separate entry of the source.
What was measured:
cytochrome oxidase (COX) = conditions: brains from ovariectomized mice; cited from earlier work
TNBC = experiment: Pilot biomarker clinical study of S-equol in TNBC (Example 12); type: in vivo, human
Experimental: (§1) A pilot biomarker clinical study was performed in 20 subjects with documented TNBC to determine the effect of the ERβ agonist S-equol on Ki67 an indicator of tumor cell proliferation. Tumor cell proliferation was measured by immunohistological staining for Ki-67. See, FIG. 18 for the outline of the protocol. Ki-67 is encoded by the gene MKI67 gene and is required to maintain individual mitotic chromosomes dispersed in the cytoplasm following nuclear envelope disassembly. Measuring the fraction of Ki-67-positive cells in a tumor is known to be a reliable parameter for assessing cancer patient prognosis. Subjects with TNBC are known to have very high levels of Ki67.
Patients enrolled in the study received a history, physical, laboratory assessment, radiological imaging, and diagnostic biopsies. Immunohistochemistry (IHC) of Ki67 (proliferation marker), total ERβ, and pY36-ERβ (phosphorylated ERβ, B7H1 (also known as PDL-1) and BRCA1 (breast cancer 1, early onset) were conducted using core needle biopsy tissue samples prior to treatment. Patients were given oral S-equol 50 mg, twice daily for approximately two weeks (10-21 days) prior to the scheduled oncologic surgeries or start of primary systemic therapy. Tumor samples were obtained from the surgery or the two-week repeat core needle biopsy. Post-treatment IHC evaluation of Ki67, total ERβ, phosphorylated ERβ (pY36) and BRCA1 were obtained. Ki67 reduction is a validated surrogate marker of both short and long term hormonal therapy efficacy in trials of human breast cancer and was compared pre- and post-treatment with S-equol. […] A c-DNA microarray platform was also used to discover downstream transcriptional targets of ERβ resulting from activation by S-equol.
Women eligible for the study had newly diagnosed, previously untreated, triple negative breast cancer, with an intact primary breast tumor of any size. All stages of the disease were eligible. They took S-equol during the time they underwent standard preoperative evaluation or pre-therapeutic work-up for advanced disease, such as staging procedures or central line placement. If primary surgery was performed, tissue leftover after standard diagnostic evaluation was used for the two-week biomarker assessment. […] See, FIG. 10.
A standard procedure for acquiring core biopsy with a Bard 14-gauge needle was utilized for determining TNBC prior to enrollment. Whenever possible, the tumor tissues used for IHC analyses were acquired at the same time as the diagnostic core biopsy. The tissue samples were sent for staining of total and pY36 ERβ and Ki67, and analyzed. Testing for ERα, PR, and HER-2 was performed using validated methods. TNBC tumors were defined as less than 5% nuclear staining of carcinoma cells for ERα and PR and either 0, 1, or 2+ staining for HER-2 by IHC. Whole-Genome DASL HT platform from Illumina, which is designed for gene expression profiling with extremely low input of RNA (50 pg), was used to interrogate paired FFPE tissue obtained before and after exposure to S-equol.
The primary analysis estimated the geometric mean change of the Ki67 expression from baseline to two weeks. This was performed using a one-sample t-test of the pre/post differences in the log-transformed data, and summarized by the 95% confidence interval. […]

melanoma = experiment: Pilot biomarker clinical study of S-equol in melanoma (Example 7, present tense); type: in vivo, human; conditions: melanoma patients, oral S-equol 50 mg twice daily 10-21 days
Experimental: as §1, with “study is” for “study was”, “documented melanoma” for “documented TNBC”, “proliferation is” for “proliferation was”, “Ki-67.” for “Ki-67. See, FIG. 18 for the outline of the protocol.”
Patients enrolled in the study receive a history, physical, laboratory assessment, radiological imaging, and diagnostic biopsies. Immunohistochemistry (IHC) of Ki67 (proliferation marker), total ERβ, and pY36-ERβ (phosphorylated ERβ), B7H1 (also known as PDL-1) and MIA and S100B are conducted using core needle biopsy tissue samples prior to treatment. Patients are given oral S-equol 50 mg, twice daily for approximately two weeks (10-21 days) prior to the scheduled oncologic surgeries or start of primary systemic therapy. […]
A standard procedure for acquiring core biopsy is utilized for determining melanoma prior to enrollment. […] The tissue samples are sent for staining of total and pY36, ERβ and Ki67, and analyzed. […]

[1] = of 17 evaluable patients, S-equol 50 mg twice daily 10-21 days

In the case of Oc1ccc([C@H]2COc3cc(O)ccc3C2)cc1 [S-equol], the “cytochrome oxidase (COX) activity and COX1 protein levels” value (cytochrome oxidase (COX)) is given as “increase”, the “change in Ki67 pre- vs post-treatment (in words)” value (TNBC; TNBC patients, oral S-equol 50 mg twice daily for 10-21 days) is given as “measurable decrease in Ki67; also recorded: measurable decline in Ki67” and the “patients with 0-20% reduction in Ki-67” value (TNBC; [1]) is given as 7 patients. The “patients with greater than 20% reduction in Ki-67” value (TNBC; [1]) was “one”, the “patients with greater than 30% reduction in Ki-67” value (TNBC; [1]) was 4 patients and the “patients with no reduction in Ki-67” value (TNBC; [1]) was 5 patients. The “change in Ki67 pre- vs post-treatment (in words)” value (melanoma) was “measurable decrease in Ki67; also recorded: measurable decline in Ki67”.
